Source: PubChem BioAssay (NCI)
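Briefly, cells in 96-well plates were exposed to five compound concentrations for 48 h, and endpoints were estimated by linear interpolation. TGI marks complete inhibition of growth.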

Assays:
Assay in all cases: NCI tumour cell line growth inhibition, 48 h
786-0 renal = system: 786-0 renal
A498 renal = system: A498 renal
A549 NSCLC = system: A549 NSCLC
BT-549 breast = system: BT-549 breast
CAKI-1 renal = system: CAKI-1 renal
CCRF-CEM leukemia = system: CCRF-CEM leukemia
COLO 205 colon = system: COLO 205 colon
DU-145 prostate = system: DU-145 prostate
EKVX NSCLC = system: EKVX NSCLC
HCT-116 colon = system: HCT-116 colon
HCT-15 colon = system: HCT-15 colon
HL-60(TB) leukemia = system: HL-60(TB) leukemia
HOP-62 NSCLC = system: HOP-62 NSCLC
HOP-92 NSCLC = system: HOP-92 NSCLC
HS 578T breast = system: HS 578T breast
HT29 colon = system: HT29 colon
IGROV1 ovarian = system: IGROV1 ovarian
K-562 leukemia = system: K-562 leukemia
KM12 colon = system: KM12 colon
LOX IMVI melanoma = system: LOX IMVI melanoma
M14 melanoma = system: M14 melanoma
MALME-3M melanoma = system: MALME-3M melanoma
MCF7 breast = system: MCF7 breast
MDA-MB-231 breast = system: MDA-MB-231 breast
MDA-MB-435 = system: MDA-MB-435
MDA-N = system: MDA-N
MOLT-4 leukemia = system: MOLT-4 leukemia
NCI-H226 lung = system: NCI-H226 lung
NCI-H23 lung = system: NCI-H23 lung
NCI-H522 lung = system: NCI-H522 lung
NCI/ADR-RES ovarian = system: NCI/ADR-RES ovarian
OVCAR-3 ovarian = system: OVCAR-3 ovarian
OVCAR-4 ovarian = system: OVCAR-4 ovarian
OVCAR-5 ovarian = system: OVCAR-5 ovarian
OVCAR-8 ovarian = system: OVCAR-8 ovarian
PC-3 prostate = system: PC-3 prostate
RPMI-8226 leukemia = system: RPMI-8226 leukemia
SF-268 CNS = system: SF-268 CNS
SF-295 CNS = system: SF-295 CNS
SF-539 CNS = system: SF-539 CNS
SK-MEL-2 melanoma = system: SK-MEL-2 melanoma
SK-MEL-28 melanoma = system: SK-MEL-28 melanoma
SK-MEL-5 melanoma = system: SK-MEL-5 melanoma
SK-OV-3 ovarian = system: SK-OV-3 ovarian
SN12C renal = system: SN12C renal
SNB-19 CNS = system: SNB-19 CNS
SNB-75 CNS = system: SNB-75 CNS
SW-620 colon = system: SW-620 colon
T-47D breast = system: T-47D breast
TK-10 renal = system: TK-10 renal
U251 CNS = system: U251 CNS
UACC-257 melanoma = system: UACC-257 melanoma
UACC-62 melanoma = system: UACC-62 melanoma
UO-31 renal = system: UO-31 renal
ACHN renal = system: ACHN renal
HCC-2998 colon = system: HCC-2998 colon
NCI-H460 lung = system: NCI-H460 lung
RXF 393 renal = system: RXF 393 renal

## CCn1c2c(c3ccccc3c1=O)C(=O)c1ccccc1-2
786-0 renal
  TGI: > 100 µM
A498 renal
  TGI: > 100 µM
A549 NSCLC
  TGI: > 100 µM
BT-549 breast
  TGI: > 100 µM
CAKI-1 renal
  TGI: > 100 µM
CCRF-CEM leukemia
  TGI: > 100 µM
COLO 205 colon
  TGI: > 100 µM
DU-145 prostate
  TGI: > 100 µM
EKVX NSCLC
  TGI: > 100 µM
HCT-116 colon
  TGI: > 100 µM
HCT-15 colon
  TGI: > 100 µM
HL-60(TB) leukemia
  TGI: > 100 µM
HOP-62 NSCLC
  TGI: > 100 µM
HOP-92 NSCLC
  TGI: > 100 µM
HS 578T breast
  TGI: > 100 µM
HT29 colon
  TGI: > 100 µM
IGROV1 ovarian
  TGI: > 100 µM
K-562 leukemia
  TGI: > 100 µM
KM12 colon
  TGI: > 100 µM
LOX IMVI melanoma
  TGI: > 100 µM
M14 melanoma
  TGI: > 100 µM
MALME-3M melanoma
  TGI: > 100 µM
MCF7 breast
  TGI: > 100 µM
MDA-MB-231 breast
  TGI: > 100 µM
MDA-MB-435
  TGI: > 100 µM
MDA-N
  TGI: > 100 µM
MOLT-4 leukemia
  TGI: > 100 µM
NCI-H226 lung
  TGI: > 100 µM
NCI-H23 lung
  TGI: > 100 µM
NCI-H522 lung
  TGI: > 100 µM
NCI/ADR-RES ovarian
  TGI: > 100 µM
OVCAR-3 ovarian
  TGI: > 100 µM
OVCAR-4 ovarian
  TGI: > 100 µM
OVCAR-5 ovarian
  TGI: > 100 µM
OVCAR-8 ovarian
  TGI: > 100 µM
PC-3 prostate
  TGI: > 100 µM
RPMI-8226 leukemia
  TGI: > 100 µM
SF-268 CNS
  TGI: > 100 µM
SF-295 CNS
  TGI: > 100 µM
SF-539 CNS
  TGI: 39.7 µM
SK-MEL-2 melanoma
  TGI: > 100 µM
SK-MEL-28 melanoma
  TGI: > 100 µM
SK-MEL-5 melanoma
  TGI: > 100 µM
SK-OV-3 ovarian
  TGI: > 100 µM
SN12C renal
  TGI: > 100 µM
SNB-19 CNS
  TGI: > 100 µM
SNB-75 CNS
  TGI: > 100 µM
SW-620 colon
  TGI: > 100 µM
T-47D breast
  TGI: > 100 µM
TK-10 renal
  TGI: > 100 µM
U251 CNS
  TGI: > 100 µM
UACC-257 melanoma
  TGI: > 100 µM
UACC-62 melanoma
  TGI: > 100 µM
UO-31 renal
  TGI: > 100 µM

## CC(=O)c1ccc(Oc2c3ccccc3nc3ccccc23)cc1
786-0 renal
  TGI: 9.61 µM
A498 renal
  TGI: 31.8 µM
A549 NSCLC
  TGI: 31.7 µM
ACHN renal
  TGI: 15.9 µM
BT-549 breast
  TGI: 27.1 µM
CAKI-1 renal
  TGI: 17.3 µM
CCRF-CEM leukemia
  TGI: 8.43 µM
COLO 205 colon
  TGI: 7.55 µM
DU-145 prostate
  TGI: 15.2 µM
EKVX NSCLC
  TGI: 35.1 µM
HCC-2998 colon
  TGI: 24 µM
HCT-116 colon
  TGI: 8.81 µM
HCT-15 colon
  TGI: 17.5 µM
HL-60(TB) leukemia
  TGI: 0.463 µM
HOP-62 NSCLC
  TGI: 29.5 µM
HOP-92 NSCLC
  TGI: 25.6 µM
HS 578T breast
  TGI: 31.3 µM
HT29 colon
  TGI: 6.69 µM
IGROV1 ovarian
  TGI: 17.4 µM
K-562 leukemia
  TGI: 20.1 µM
KM12 colon
  TGI: 22.7 µM
LOX IMVI melanoma
  TGI: 17.9 µM
M14 melanoma
  TGI: 14.6 µM
MALME-3M melanoma
  TGI: 27.2 µM
MCF7 breast
  TGI: 12.1 µM
MDA-MB-231 breast
  TGI: 25.5 µM
MDA-MB-435
  TGI: 10.5 µM
MDA-N
  TGI: 14.2 µM
NCI-H226 lung
  TGI: 26.4 µM
NCI-H23 lung
  TGI: 56.6 µM
NCI-H460 lung
  TGI: 31.9 µM
NCI-H522 lung
  TGI: 25.4 µM
NCI/ADR-RES ovarian
  TGI: 30.4 µM
OVCAR-3 ovarian
  TGI: 21 µM
OVCAR-4 ovarian
  TGI: 18.6 µM
OVCAR-5 ovarian
  TGI: 23.9 µM
OVCAR-8 ovarian
  TGI: 22.2 µM
PC-3 prostate
  TGI: 20.3 µM
RPMI-8226 leukemia
  TGI: 9.63 µM
RXF 393 renal
  TGI: 21.3 µM
SF-268 CNS
  TGI: 17.9 µM
SF-295 CNS
  TGI: 28.2 µM
SF-539 CNS
  TGI: 5.5 µM
SK-MEL-2 melanoma
  TGI: 21.4 µM
SK-MEL-28 melanoma
  TGI: 28.5 µM
SK-MEL-5 melanoma
  TGI: 28.6 µM
SK-OV-3 ovarian
  TGI: 29.3 µM
SN12C renal
  TGI: 16 µM
SNB-19 CNS
  TGI: 37.8 µM
SNB-75 CNS
  TGI: 29.7 µM
SW-620 colon
  TGI: 20.5 µM
T-47D breast
  TGI: 18 µM
TK-10 renal
  TGI: 19.8 µM
U251 CNS
  TGI: 25.9 µM
UACC-257 melanoma
  TGI: 15.4 µM
UACC-62 melanoma
  TGI: 17 µM
UO-31 renal
  TGI: 13.2 µM
